Laboratory results published in patent publication US9181193B2, “Indenoquinolone compound, preparation method and use thereof” (Second Military Medical University, PLA, priority 2010, dated 2015).

Columns and labels:
Type in all cases: cell-based
[1] = tested on: A549 (human lung cancer cells); assay: MTT in vitro anti-tumor activity test, A549
[2] = tested on: MDA-MB-435 (human breast cancer cells); assay: MTT in vitro anti-tumor activity test, MDA-MB-435
[3] = tested on: HepG2 (human hepatoma cells); assay: MTT in vitro anti-tumor activity test, HepG2
[4] = tested on: Colo205 (human colon cancer cells); assay: MTT in vitro anti-tumor activity test, Colo205
[5] = A549 human lung cancer cells, MTT, 72 h
[6] = MDA-MB-435, 100 μg/mL, MTT, 72 h
[7] = MDA-MB-435 human breast cancer cells, MTT, 72 h
[8] = HepG2 human hepatoma cells, MTT, 72 h
[9] = Colo205 human colon cancer cells, MTT, 72 h
[10] = MTT assay, 72 h incubation, A549 cells
[11] = inhibition at 100 μg/mL, MTT assay, 72 h, A549 cells
[12] = MTT assay, 72 h incubation, MDA-MB-435 cells
[13] = inhibition at 100 μg/mL, MTT assay, 72 h, MDA-MB-435 cells
[14] = MTT assay, 72 h incubation, HepG2 cells
[15] = inhibition at 100 μg/mL, MTT assay, 72 h, HepG2 cells
[16] = MTT assay, 72 h incubation, Colo205 cells
[17] = inhibition at 100 μg/mL, MTT assay, 72 h, Colo205 cells

Row | Structure (SMILES) | A549 IC50 [1, 5] [µg/mL] | MDA-MB-435 IC50 [2, 7] [µg/mL] | HepG2 IC50 [3, 8] [µg/mL] | Colo205 IC50 [4, 9] [µg/mL] | A549 IC50 [1, 10] | MDA-MB-435 IC50 [2, 12] [µg/mL] | HepG2 IC50 [3, 14] [µg/mL] | Colo205 IC50 [4, 16] [µg/mL] | A549 100 μg/mL IC % ([1]; A549, 100 μg/mL, MTT, 72 h) [%] | MDA-MB-435 100 μg/mL IC % [2, 6] [%] | HepG2 100 μg/mL IC % ([3]; HepG2, 100 μg/mL, MTT, 72 h) [%] | Colo205 100 μg/mL IC % ([4]; Colo205, 100 μg/mL, MTT, 72 h) [%] | A549 100 μg/mL IC % [1, 11] [%] | MDA-MB-435 100 μg/mL IC % [2, 13] [%] | HepG2 100 μg/mL IC % [3, 15] [%] | Colo205 100 μg/mL IC % [4, 17] [%]
1 | CCN(CC)CCOc1nc2ccccc2c2c1-c1ccc(Cl)cc1C2=O [Compound 8] | 28.56 | 31.62 | 28.84 | 15.16 |  |  |  |  | 84.24 | 100 | 73.57 | 99.01 |  |  |  | 
2 | O=C1c2cc(Cl)ccc2-c2c(OCCN3CCCCC3)nc3ccccc3c21 [Compound 11] | 32.73 | 44.76 | 55.62 | 39.33 |  |  |  |  | 69.84 | 69.43 | 63.27 | 69.24 |  |  |  | 
3 | COc1ccc2c(c1)C(=O)c1c-2c(OCCn2ccnc2)nc2ccccc12 [Compound 4] | 16.61 | >100 | >100 | 13.51 |  |  |  |  | 78.34 | 48.21 | 34.87 | 60.32 |  |  |  | 
4 | COc1ccc2nc(OCCN3CCCC3)c3c(c2c1)C(=O)c1cc(Br)ccc1-3 [Compound 18] | >100 | 24.86 | >100 | >100 |  |  |  |  | 35.69 | 67.72 | 35.48 | 43.88 |  |  |  | 
5 | COc1ccc2c(c1)-c1c(OCCN(C)C)nc3ccc(OC)cc3c1C2=O [Compound 17] | 18.26 | 4.98 | 10.31 | 6.70 |  |  |  |  | 85.30 | 100 | 100 | 100 |  |  |  | 
6 | CCN(CC)CCOc1nc2ccccc2c2c1-c1ccc(OC)cc1C2=O [Compound 2] | 1.53 | 1.99 | 2.50 | 0.427 |  |  |  |  | 100 | 100 | 100 | 100 |  |  |  | 
7 | CCN(CC)CCOc1nc2cc(OC)c(OC)cc2c2c1-c1ccc(OC)cc1C2=O [Compound 21] | 1.68 | 1.17 | 0.700 | 2.56 |  |  |  |  | 100 | 93.41 | 93.16 | 88.97 |  |  |  | 

Second part, led by results:

Row | A549 IC50 [1, 5] [µg/mL] | MDA-MB-435 IC50 [2, 7] [µg/mL] | HepG2 IC50 [3, 8] [µg/mL] | Colo205 IC50 [4, 9] [µg/mL] | A549 IC50 [1, 10] | MDA-MB-435 IC50 [2, 12] [µg/mL] | HepG2 IC50 [3, 14] [µg/mL] | Colo205 IC50 [4, 16] [µg/mL] | Structure (SMILES) | A549 100 μg/mL IC % ([1]; A549, 100 μg/mL, MTT, 72 h) [%] | MDA-MB-435 100 μg/mL IC % [2, 6] [%] | HepG2 100 μg/mL IC % ([3]; HepG2, 100 μg/mL, MTT, 72 h) [%] | Colo205 100 μg/mL IC % ([4]; Colo205, 100 μg/mL, MTT, 72 h) [%] | A549 100 μg/mL IC % [1, 11] [%] | MDA-MB-435 100 μg/mL IC % [2, 13] [%] | HepG2 100 μg/mL IC % [3, 15] [%] | Colo205 100 μg/mL IC % [4, 17] [%]
8 | >100 | >100 | >100 | >100 |  |  |  |  | COc1ccc2c(c1)C(=O)c1c-2c(OCCBr)nc2ccccc12 [Compound 30] | 19.48 | 31.90 | 0 | 21.11 |  |  |  | 
9 |  |  |  |  | ≈100 μg/mL | 0.703 | 3.36 | 0.632 | COc1ccc2c(c1)C(=O)c1c-2c(=O)n(CCN(C)C)c2ccc(OC)cc12 [Compound 41] |  |  |  |  | 49.27 | 77.77 | 85.01 | 83.62
10 |  |  |  |  | >100 µg/mL | >100 | >100 | >100 | O=C1c2cc(Cl)ccc2-c2c1c1ccccc1n(CCN1CCCCC1)c2=O [Compound 39] |  |  |  |  | 47.81 | 14.88 | 22.39 | 13.12
11 |  |  |  |  | 13.16 µg/mL | 9.37 | 22.97 | 18.77 | O=C1c2cc(Cl)ccc2-c2c1c1ccccc1n(CCn1ccnc1)c2=O [Compound 38] |  |  |  |  | 100 | 100 | 88.62 | 95.16
12 | >100 | 91.52 | 56.61 | 25.50 |  |  |  |  | COc1cc2nc(OCCn3ccnc3)c3c(c2cc1OC)C(=O)c1cc(Cl)ccc1-3 [Compound 27] | 35.12 | 51.23 | 57.51 | 66.27 |  |  |  | 
13 |  |  |  |  | 8.58 µg/mL | 10.73 | 6.92 | 7.45 | COc1ccc2c(c1)C(=O)c1c-2c(=O)n(CCN2CCCC2)c2ccccc12 [Compound 32] |  |  |  |  | 92.32 | 96.48 | 70.03 | 92.85
14 |  |  |  |  | >100 µg/mL | >100 | >100 | >100 | COc1ccc2c(c1)C(=O)c1c-2c(=O)n(CCN2CCOCC2)c2ccccc12 [Compound 33] |  |  |  |  | 40.55 | 27.19 | 4.57 | 29.31
15 |  |  |  |  | 58.58 µg/mL | 41.01 | >100 | 36.76 | O=C1c2cc(Cl)ccc2-c2c1c1ccccc1n(CCN1CCCC1)c2=O [Compound 37] |  |  |  |  | 61.64 | 70.26 | 24.95 | 69.37
